Test [1] has as its target Trypanothione reductase (Trypanosoma cruzi, UniProt P28593). Briefly: Compound was tested for inhibitory activity against recombinant Trypanothione reductase from Trypanosoma cruzi.
Test [2] relates to Glutathione reductase (Bos taurus). The test is described as follows: Compound was tested for inhibitory activity against glutathione reductase from bovine intestinal mucosa; NI means no inhibition.

One may read the Ki as the dissociation constant of the complex between target and ligand, obtained from inhibition or displacement.

Molecules are shown by their SMILES. Active and inactive are the calls of the source. The calls are words filed in the database; no cut-off is given here.

Chain of Trypanothione reductase (P28593 whole entry): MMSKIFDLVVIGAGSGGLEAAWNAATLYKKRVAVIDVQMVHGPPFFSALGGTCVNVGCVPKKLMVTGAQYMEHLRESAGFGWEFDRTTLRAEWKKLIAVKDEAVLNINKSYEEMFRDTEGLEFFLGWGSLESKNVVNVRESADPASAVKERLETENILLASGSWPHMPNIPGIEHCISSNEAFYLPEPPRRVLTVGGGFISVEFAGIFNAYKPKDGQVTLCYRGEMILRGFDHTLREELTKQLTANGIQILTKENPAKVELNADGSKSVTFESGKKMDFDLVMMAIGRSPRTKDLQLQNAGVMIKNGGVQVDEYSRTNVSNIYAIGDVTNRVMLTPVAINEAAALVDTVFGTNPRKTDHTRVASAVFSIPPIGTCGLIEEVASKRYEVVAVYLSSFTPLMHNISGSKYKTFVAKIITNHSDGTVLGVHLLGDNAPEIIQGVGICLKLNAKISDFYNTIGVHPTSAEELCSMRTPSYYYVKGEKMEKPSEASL

`CN(C)CCCNC(=O)CNC(=O)C(CCSCC(NC(=O)OCc1ccccc1)C(=O)NCC(=O)NCCCN(C)C)NC(=O)OCc1ccccc1` (stereo unspecified): the Ki in test [1] was found to be 43 µM. Further, in test [2], the result was inactive.

Take `CN(C)CCCNC(=O)CNC(=O)C(CSCSCC(NC(=O)OCc1ccccc1)C(=O)NCC(=O)NCCCN(C)C)NC(=O)OCc1ccccc1` (stereo unspecified): the Ki in test [1] came to 31 µM. In addition, in test [2], the outcome was inactive.

Turning to `CN(C)CCCNC(=O)CNC(=O)C(CSCC(NC(=O)OCc1ccccc1)C(=O)NCC(=O)NCCCN(C)C)NC(=O)OCc1ccccc1` (stereo unspecified), the Ki in test [1] stood at 92 µM. In addition, the outcome in test [2] was inactive.

Source of the values: ChEMBL document CHEMBL1127111, “Synthesis of non reducible inhibitors for trypanothione reductase from Trypanosoma cruzi” (Bioorg Med Chem Lett, 1993).
